Where two headings read alike, the source gives them in different places.
Experiments:
S. aureus R45-CC45 = test: MIC of compounds, S. aureus R45-CC45; format: cell-based; conditions: Staphylococcus aureus, read-out: MIC value of compounds
Procedure: (§1) Compounds 14–16 were tested further for their adjuvant-like effect with a set of ten additional S. aureus isolates. Firstly, MIC values of the molecules were evaluated in two clinical MSSA isolates (MM-O058, MM-N072), seven MRSA (USA300 LAC, 5328, LG-N017, MM-O021, R45-CC45, R46-CC22, COL) and one VISA strain (Mu50). Detailed results are presented in the Supplementary section (Table S3).
(§2) Determination of MIC values, i.e., intrinsic antibacterial activity, of products and antibiotics (oxacillin, ampicillin, vancomycin, ciprofloxacin, and erythromycin) in the presence and absence of compounds tested was conducted by the use of a standard 2-fold microdilution method in cation-adjusted Mueller Hinton broth following the Clinical and Laboratory Standards Institute (CLSI) guidelines. The MIC values were detected using an Infinite M200 pro Tecan microplate reader (Tecan® France, SA-Lyon, France). MIC determinations were conducted in 96-well microtiter plates and repeated 3–4 times.
(§3) Initially, MICs of a series of imidazolone derivatives were assessed against susceptible (reference) and MDR strains of staphylococci. Next, MIC values of the aforementioned antibiotics were determined in the absence and presence of imidazolone derivatives to assess the chemosensitizing effect of these compounds. […] 5-arylideneimidazolones and 5-arylidenethiazolones, which precipitated after addition to bacterial suspension in MH II medium, were tested at the highest concentrations at which precipitation was not observed. […] Antibacterial activity of compounds and antibiotics ampicillin, vancomycin, ciprofloxacin, and erythromycin was recorded as the lowest concentration of molecules able to inhibit bacterial growth after 18 h incubation at 37 °C. […] The results are presented as activity gain (A) parameter which was calculated as ratio of MIC of a certain antibiotic (MICAnt) to its MICAnt+Comp, observed in combination with a tested compound (7, 12–16, 19, or 20; Equation (1)). […]

S. aureus Mu50 = test: MIC reduction assay (antibiotic adjuvant), S. aureus Mu50; format: cell-based, Staphylococcus aureus; set-up: key: A = MIC of antibiotic alone / MIC with compound;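 note: compound at no more than one quarter of its own MIC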
From the text: (§4) The adjuvant properties of compounds 14–16 in S. aureus clinical isolates were next tested in combination with oxacillin and the penicillinase-susceptible β-lactam antibiotic, ampicillin. The second β-lactam antibiotic was chosen based on its vulnerability to enzymatic hydrolysis, another important resistance mechanism in S. aureus against penicillin. Therefore, the results of the MIC reduction assay obtained on the activity of arylideneimidazolones combined with oxacillin and ampicillin, respectively, might provide further insights into the possible mechanism of action of the compounds. Complete results are presented in Supplementary (Tables S4 and S5), while condensed in Figure 6, in the case of desired activity noted. […] One possible explanation for the lack of adjuvant activity of compounds in some of the strains selected for this study might be that these strains express PBP2a only when induced by the antibiotic, while others, for which potentiating activity of compounds was observed, produce this protein in high levels straight away.
as §2
(§5) Initially, MICs of a series of imidazolone derivatives were assessed against susceptible (reference) and MDR strains of staphylococci. Next, MIC values of the aforementioned antibiotics were determined in the absence and presence of imidazolone derivatives to assess the chemosensitizing effect of these compounds. […] 5-arylideneimidazolones and 5-arylidenethiazolones, which precipitated after addition to bacterial suspension in MH II medium, were tested at the highest concentrations at which precipitation was not observed. […] Antibacterial activity of compounds and antibiotics ampicillin, vancomycin, ciprofloxacin, and erythromycin was recorded as the lowest concentration of molecules able to inhibit bacterial growth after 18 h incubation at 37 °C. The incubation of bacterial strains exposed to oxacillin paired with compounds tested was conducted at 35 °C and extended to 24 h due to frequent occurrence of heterogeneity among MRSA strains. The results are presented as activity gain (A) parameter which was calculated as ratio of MIC of a certain antibiotic (MICAnt) to its MICAnt+Comp, observed in combination with a tested compound (7, 12–16, 19, or 20; Equation (1)). (1) A=(MICAnt/MICAnt+Comp)

S. aureus MM-O021 [1] = test: MIC reduction assay (antibiotic adjuvant), S. aureus MM-O021; format: cell-based, Staphylococcus aureus
From the text: as §4, §2, §5

MRSA 19449 = test: MIC determination (microdilution), MRSA 19449; format: cell-based, Staphylococcus aureus; conditions: Staphylococcus aureus, MRSA, no precipitation
Procedure: as §2, §5

S. aureus R46-CC22 = test: MIC of compounds, S. aureus R46-CC22; format: cell-based; conditions: Staphylococcus aureus; R46-CC22 (MRSA)
Procedure: as §1, §2, §3

S. aureus USA300 LAC [2] = test: MIC reduction assay (antibiotic adjuvant), S. aureus USA300 LAC; format: cell-based, Staphylococcus aureus; set-up: key: A = MIC of antibiotic alone / MIC with compound
From the text: as §4, §2, §5

S. aureus MM-O058 [3] = test: MIC of compounds, S. aureus MM-O058; format: cell-based; conditions: Staphylococcus aureus; MM-O058 (MSSA)
Procedure: as §1, §2, §3

S. aureus USA300 LAC [4] = test: MIC of compounds, S. aureus USA300 LAC; format: cell-based; conditions: Staphylococcus aureus
Procedure: as §1, §2, §3

S. aureus MM-N072 [5] = test: MIC of compounds, S. aureus MM-N072; format: cell-based; conditions: Staphylococcus aureus; MM-N072 (MSSA)
Procedure: as §1, §2, §3

S. aureus MM-N072 [6] = test: MIC reduction assay (antibiotic adjuvant), S. aureus MM-N072; format: cell-based, Staphylococcus aureus
From the text: as §4, §2, §5

S. aureus MM-O058 [7] = test: MIC reduction assay (antibiotic adjuvant), S. aureus MM-O058; format: cell-based, Staphylococcus aureus
From the text: as §4, §2, §5

K. aerogenes CM-64 = test: MIC reduction assay (antibiotic adjuvant), K. aerogenes CM-64; format: cell-based, Klebsiella aerogenes; conditions: doxycycline, chloramphenicol, norfloxacin, erythromycin;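 note: compound at no more than one quarter of its own MIC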
From the text: (§6) A subset of compounds, namely 7, 12–16, 19, 20, was also examined for the potential to increase the effectiveness of the antibiotics chloramphenicol, erythromycin, doxycycline, and the fluoroquinolone antibiotic norfloxacin, which all are substrates for AcrAB-TolC in K. aerogenes. In addition to strain Ea-289, the adjuvant-like effect of the compounds was investigated in strain CM-64, which also overexpresses the AcrAB-TolC efflux pump, although it has no changes in porin content, and in the Ea-289 derivatives, i.e., Ea-294 and Ea-308, which are devoid of AcrAB (Table S17, Supplementary).
as §5
(§7) MIC values of 5-arylideneimidazolone derivatives were determined following CLSI recommendations as in the methods described for S. aureus (Section 3.3.1).

S. aureus MM-O021 [8] = test: MIC of compounds, S. aureus MM-O021; format: cell-based; conditions: Staphylococcus aureus; MM-O021 (MRSA)
Procedure: as §1, §2, §3

S. aureus LG-N017 = test: MIC reduction assay (antibiotic adjuvant), S. aureus LG-N017; format: cell-based, Staphylococcus aureus
From the text: as §4, §2, §5

[9] = tested on: K. aerogenes Ea-294, Ea-308; test: MIC reduction assay (antibiotic adjuvant), K. aerogenes Ea-294, Ea-308; format: cell-based, Klebsiella aerogenes; conditions: doxycycline, chloramphenicol, norfloxacin, erythromycin;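 note: compound at no more than one quarter of its own MIC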
From the text: as §6, §5, §7

S. aureus 5328 = test: MIC of compounds, S. aureus 5328; format: cell-based; conditions: Staphylococcus aureus; 5328 (MRSA)
Procedure: as §1, §2, §3

[10] = ampicillin, range over repetitions
[11] = USA300 LAC (MRSA), read-out: MIC value of compounds

Structure (SMILES): NC1=N/C(=C\c2ccc(-c3ccccc3)cc2)C(=O)N1CCN1CCOCC1 [Compound 14]
- MIC (S. aureus R45-CC45; R45-CC45 (MRSA)): ≥ 500 µM
- A (activity gain) (S. aureus Mu50; ampicillin): 1
- A (activity gain) (S. aureus Mu50; ciprofloxacin): 1
- A (activity gain) (S. aureus Mu50; erythromycin): 1
- A (activity gain) (S. aureus Mu50; vancomycin): 1
- A (activity gain) (S. aureus MM-O021 [1]; [10]): 1
- A (activity gain) (S. aureus MM-O021 [1]; erythromycin): 1
- MIC (MRSA 19449): 31.2 to 250 µM
- MIC (S. aureus R46-CC22): ≥ 500 µM
- A (activity gain) (S. aureus USA300 LAC [2]; ampicillin): 1
- A (activity gain) (S. aureus USA300 LAC [2]; ciprofloxacin): 1
- A (activity gain) (S. aureus USA300 LAC [2]; erythromycin): 1
- MIC (S. aureus MM-O058 [3]): ≥ 1000 µM
- MIC (S. aureus USA300 LAC [4]; [11]): ≥ 500 µM
- MIC (S. aureus MM-N072 [5]): ≥ 500 µM
- A (activity gain) (S. aureus MM-N072 [6]; ampicillin): 1
- A (activity gain) (S. aureus MM-N072 [6]; erythromycin): 1
- A (activity gain) (S. aureus MM-O058 [7]; ampicillin): 1
- A (activity gain) (S. aureus MM-O058 [7]; erythromycin): 1
- A (activity gain) (K. aerogenes CM-64): 1
- MIC (S. aureus MM-O021 [8]): ≥ 500 µM
- A (activity gain) (S. aureus LG-N017; ampicillin): 2
- A (activity gain) (S. aureus LG-N017; erythromycin): 1
- A (activity gain) [9]: 1
- MIC (S. aureus 5328): ≥ 500 µM

Structure (SMILES): NC1=N/C(=C\c2ccc(-c3ccccc3)cc2)C(=O)N1CCCN1CCOCC1 [Compound 15]
- MIC (S. aureus R45-CC45; MRSA): 125 to 250 µM
- A (activity gain) (S. aureus Mu50; ampicillin): 2
- A (activity gain) (S. aureus Mu50; ciprofloxacin): 1
- A (activity gain) (S. aureus Mu50; erythromycin): 1
- A (activity gain) (S. aureus Mu50; vancomycin): 1
- A (AMP), gain of activity, arithmetic mean (S. aureus MM-O021 [1]; ampicillin, arithmetic mean of 3-4 repetitions): 10.7
- A (activity gain) (S. aureus MM-O021 [1]; [10]): 8-16
- A (activity gain) (S. aureus MM-O021 [1]; erythromycin): 1
- MIC (MRSA 19449): 31.2 to 250 µM
- MIC (S. aureus R46-CC22): 250 µM
- A (activity gain) (S. aureus USA300 LAC [2]; ampicillin): 2
- A (activity gain) (S. aureus USA300 LAC [2]; ciprofloxacin): 1
- A (activity gain) (S. aureus USA300 LAC [2]; erythromycin): 1
- MIC (S. aureus MM-O058 [3]): 250 µM
- MIC (S. aureus USA300 LAC [4]; MRSA / USA300, read-out: MIC value of compounds): 125 µM
- MIC (S. aureus MM-N072 [5]): 250 µM
- A (activity gain) (S. aureus MM-N072 [6]; ampicillin): 1
- A (activity gain) (S. aureus MM-N072 [6]; erythromycin): 1
- A (activity gain) (S. aureus MM-O058 [7]; ampicillin): 1
- A (activity gain) (S. aureus MM-O058 [7]; erythromycin): 1
- A (activity gain) (K. aerogenes CM-64): 1
- MIC (S. aureus MM-O021 [8]): 250 to 500 µM
- A (activity gain) (S. aureus LG-N017; ampicillin): 1
- A (activity gain) (S. aureus LG-N017; erythromycin): 1
- A (activity gain) [9]: 1
- MIC (S. aureus 5328): 250 µM

Structure (SMILES): NC1=N/C(=C\c2cccc(Oc3ccccc3)c2)C(=O)N1CCCN1CCOCC1 [Compound 16]
- MIC (S. aureus R45-CC45; R45-CC45 (MRSA)): 250 µM
- A (activity gain) (S. aureus Mu50; ampicillin): 2
- A (activity gain) (S. aureus Mu50; ciprofloxacin): 1
- A (activity gain) (S. aureus Mu50; erythromycin): 1
- A (activity gain) (S. aureus Mu50; vancomycin): 1
- A (activity gain) (S. aureus MM-O021 [1]; [10]): 1
- A (activity gain) (S. aureus MM-O021 [1]; erythromycin): 1
- MIC (S. aureus R46-CC22): 250 to 500 µM
- A (activity gain) (S. aureus USA300 LAC [2]; ampicillin): 1
- A (activity gain) (S. aureus USA300 LAC [2]; ciprofloxacin): 1
- A (activity gain) (S. aureus USA300 LAC [2]; erythromycin): 1
- MIC (S. aureus MM-O058 [3]): 250 µM
- MIC (S. aureus USA300 LAC [4]; [11]): 250 µM
- MIC (S. aureus MM-N072 [5]): 250 µM
- A (activity gain) (S. aureus MM-N072 [6]; ampicillin): 1
- A (activity gain) (S. aureus MM-N072 [6]; erythromycin): 1
- A (activity gain) (S. aureus MM-O058 [7]; ampicillin): 1
- A (activity gain) (S. aureus MM-O058 [7]; erythromycin): 1
- MIC (S. aureus MM-O021 [8]): 250 µM
- A (activity gain) (S. aureus LG-N017; ampicillin): 1
- A (activity gain) (S. aureus LG-N017; erythromycin): 1
- MIC (S. aureus 5328): 250 µM

Structure (SMILES): NC1=N/C(=C\c2ccc3c(c2)Cc2ccccc2-3)C(=O)N1CCCN1CCOCC1 [Compound 19]
- MIC (MRSA 19449): 31.2 to 250 µM
- A (activity gain) (K. aerogenes CM-64): 1
- A (activity gain) [9]: 1
